Among the data in patent US11987588B2, “Modulators of the beta-3 adrenergic receptor useful for the treatment or prevention of heart failure and disorders related thereto” (Arena Pharmaceuticals, Inc., priority 2017, dated 2024) are IC50 values, retold here.

The target of the assay is Beta-3 Adrenergic Receptor (Homo sapiens (Human), UniProt P13945). Briefly: Homogeneous Time-Resolved Fluorescence (HTRF) cAMP antagonist assay, IC50 determination. The class given is cell-based. As to conditions: CHO-K1 cells stably expressing recombinant receptor, isoproterenol at EC90. The procedure, abridged: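 CHO-K1 cells stably expressing the recombinant receptor were preincubated with compound (10-point, 5-fold dilutions; top final typically 10 or 100 μM) in PBS with 1 mM IBMX, then stimulated with isoproterenol at its EC90 for 1 h at room temperature. cAMP was read by HTRF against an on-plate standard curve.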
Beta-3 Adrenergic Receptor, sequence (P13945 whole entry, species assumed): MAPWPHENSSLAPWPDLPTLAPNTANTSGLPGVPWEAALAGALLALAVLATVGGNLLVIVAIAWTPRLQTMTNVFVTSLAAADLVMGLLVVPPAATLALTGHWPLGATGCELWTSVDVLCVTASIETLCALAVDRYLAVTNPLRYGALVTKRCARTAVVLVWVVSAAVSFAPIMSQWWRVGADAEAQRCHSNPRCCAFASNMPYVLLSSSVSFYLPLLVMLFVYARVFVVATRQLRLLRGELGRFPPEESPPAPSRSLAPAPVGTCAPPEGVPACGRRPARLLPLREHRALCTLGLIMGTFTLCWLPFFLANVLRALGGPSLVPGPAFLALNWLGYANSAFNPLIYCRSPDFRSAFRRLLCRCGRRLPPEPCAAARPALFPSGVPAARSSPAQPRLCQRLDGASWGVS

What is called IC50 is the concentration at which inhibition is half-maximal. Turning to `CNS(=O)(=O)c1cccc(OC[C@@H](O)CNC2COC3(CCN(S(=O)(=O)c4sc(-c5ccccc5)nc4C)CC3)C2)c1` (stereo partly drawn) [Compound 186, 3-((2S)-2-hydroxy-3-(8-(4-methyl-2-phenylthiazol-5-ylsulfonyl)-1-oxa-8-azaspiro[4.5]decan-3-ylamino)propoxy)-N-methylbenzenesulfonamide], the IC50 was found to be 0.0157 µM.
The same measure for `CN1CCOc2ncc(S(=O)(=O)N3CCC4(CC3)C[C@@H](NC[C@H](O)COc3cccc(S(=O)(=O)NCC#N)c3)CO4)cc21` [Compound 460, N-(cyanomethyl)-3-((S)-2-hydroxy-3-((R)-8-(1-methyl-2,3-dihydro-1H-pyrido[2,3-b][1,4]oxazin-7-ylsulfonyl)-1-oxa-8-azaspiro[4.5]decan-3-ylamino)propoxy)benzenesulfonamide]: 3.02 µM.
The same measure for `CNS(=O)(=O)c1cccc(OC[C@@H](O)CNC2COC3(CCN(S(=O)(=O)c4cccc(-c5cnn(CCO)c5)c4)CC3)C2)c1` (stereo partly drawn) [Compound 70, 3-((2S)-2-hydroxy-3-(8-(3-(1-(2-hydroxyethyl)-1H-pyrazol-4-yl)phenylsulfonyl)-1-oxa-8-azaspiro[4.5]decan-3-ylamino)propoxy)-N-methylbenzenesulfonamide]: 0.0257 µM.
Take `CNS(=O)(=O)c1cccc(OC[C@@H](O)CNC2COC3(CCN(S(=O)(=O)c4ccc(NCCN)nc4)CC3)C2)c1` (stereo partly drawn) [Compound 429, 3-((2S)-3-(8-(6-(2-aminoethylamino)pyridin-3-ylsulfonyl)-1-oxa-8-azaspiro[4.5]decan-3-ylamino)-2-hydroxypropoxy)-N-methylbenzenesulfonamide]: the IC50 came to 0.149 µM.
In the case of `CNS(=O)(=O)c1cccc(OC[C@@H](O)CNC2COC3(CCN(S(=O)(=O)c4ccc(C#N)c(Cl)c4)CC3)C2)c1` (stereo partly drawn) [Compound 239, 3-((2S)-3-(8-(3-chloro-4-cyanophenylsulfonyl)-1-oxa-8-azaspiro[4.5]decan-3-ylamino)-2-hydroxypropoxy)-N-methylbenzenesulfonamide], the half-maximal inhibitory concentration (IC50) came out at 0.0223 µM.
For `CNS(=O)(=O)c1cccc(OC[C@@H](O)CNC2COC3(CCN(S(=O)(=O)c4cc(C)cc(-c5ccc(CN)cc5)c4)CC3)C2)c1` (stereo partly drawn) [Compound 373, 3-((2S)-3-(8-(4′-(aminomethyl)-5-methylbiphenyl-3-ylsulfonyl)-1-oxa-8-azaspiro[4.5]decan-3-ylamino)-2-hydroxypropoxy)-N-methylbenzenesulfonamide] the value was 0.0244 µM; for `CNS(=O)(=O)c1cccc(OC[C@@H](O)CNC2COC3(CCN(S(=O)(=O)c4cccc(Br)c4)CC3)C2)c1` (stereo partly drawn) [Compound 20, 3-((2S)-3-(8-(3-bromophenylsulfonyl)-1-oxa-8-azaspiro[4.5]decan-3-ylamino)-2-hydroxypropoxy)-N-methylbenzenesulfonamide], 0.0132 µM; for `CNS(=O)(=O)c1cccc(OC[C@@H](O)CNC2COC3(CCN(S(=O)(=O)c4cccc(-c5ccc(CNCC(F)(F)F)cc5)c4)CC3)C2)c1` (stereo partly drawn) [Compound 321, 3-((2S)-2-hydroxy-3-(8-(4′-((2,2,2-trifluoroethylamino)methyl)biphenyl-3-ylsulfonyl)-1-oxa-8-azaspiro[4.5]decan-3-ylamino)propoxy)-N-methylbenzenesulfonamide], 0.0705 µM.
For `CNS(=O)(=O)c1cccc(OC[C@@H](O)CN[C@H]2COC3(CCN(S(=O)(=O)c4cnc5c(c4C)N(C)CCO5)CC3)C2)c1` [Compound 467, 3-((S)-3-((R)-8-(1,8-dimethyl-2,3-dihydro-1H-pyrido[2,3-b][1,4]oxazin-7-ylsulfonyl)-1-oxa-8-azaspiro[4.5]decan-3-ylamino)-2-hydroxypropoxy)-N-methylbenzenesulfonamide], the 50% inhibitory concentration (IC50) was determined as 0.0334 µM.
`CNS(=O)(=O)c1cccc(OC[C@@H](O)CNC2COC3(CCN(S(=O)(=O)c4cc(Cl)ccc4C#N)CC3)C2)c1` (stereo partly drawn) [Compound 145, 3-((2S)-3-(8-(5-chloro-2-cyanophenylsulfonyl)-1-oxa-8-azaspiro[4.5]decan-3-ylamino)-2-hydroxypropoxy)-N-methylbenzenesulfonamide]: the IC50 was found to be 0.0215 µM.
For `CNS(=O)(=O)c1cccc(OC[C@@H](O)CNC2COC3(CCN(S(=O)(=O)c4c(Cl)ccc5nonc45)CC3)C2)c1` (stereo partly drawn) [Compound 262, 3-((2S)-3-(8-(5-chlorobenzo[c][1,2,5]oxadiazol-4-ylsulfonyl)-1-oxa-8-azaspiro[4.5]decan-3-ylamino)-2-hydroxypropoxy)-N-methylbenzenesulfonamide] the value was 0.0543 µM.
The same measure for `CNS(=O)(=O)c1cccc(OC[C@@H](O)CNC2COC3(CCN(S(=O)(=O)c4cccc(F)c4F)CC3)C2)c1` (stereo partly drawn) [Compound 201, 3-((2S)-3-(8-(2,3-difluorophenylsulfonyl)-1-oxa-8-azaspiro[4.5]decan-3-ylamino)-2-hydroxypropoxy)-N-methylbenzenesulfonamide]: 0.0171 µM.
As to `CNS(=O)(=O)c1cccc(OC[C@@H](O)CNC2COC3(CCN(S(=O)(=O)c4c(C)nn(C)c4Cl)CC3)C2)c1` (stereo partly drawn) [Compound 163, 3-((2S)-3-(8-(5-chloro-1,3-dimethyl-1H-pyrazol-4-ylsulfonyl)-1-oxa-8-azaspiro[4.5]decan-3-ylamino)-2-hydroxypropoxy)-N-methylbenzenesulfonamide], the IC50 stood at 0.0641 µM.
As to `C[C@@H](O)CNS(=O)(=O)c1cccc(OC[C@@H](O)CN[C@H]2COC3(CCN(S(=O)(=O)c4cnc5c(c4)N(C)CCO5)CC3)C2)c1` [Compound 436, 3-((S)-2-hydroxy-3-((R)-8-(1-methyl-2,3-dihydro-1H-pyrido[2,3-b][1,4]oxazin-7-ylsulfonyl)-1-oxa-8-azaspiro[4.5]decan-3-ylamino)propoxy)-N—((R)-2-hydroxypropyl)benzenesulfonamide], the IC50 amounted to 0.367 µM.
For `CNS(=O)(=O)c1cccc(OC[C@@H](O)CN[C@H]2COC3(CCN(S(=O)(=O)c4cccc(-c5ccc(CNCCC(C)C)cc5)c4)CC3)C2)c1` [Compound 364, 3-((S)-2-hydroxy-3-((R)-8-(4′-((isopentylamino)methyl)biphenyl-3-ylsulfonyl)-1-oxa-8-azaspiro[4.5]decan-3-ylamino)propoxy)-N-methylbenzenesulfonamide] the value was 0.144 µM; for `CNS(=O)(=O)c1cccc(OC[C@@H](O)CNC2COC3(CCN(S(=O)(=O)c4cncc(-c5ccc(CN)cc5)c4)CC3)C2)c1` (stereo partly drawn) [Compound 341, 3-((2S)-3-(8-(5-(4-(aminomethyl)phenyl)pyridin-3-ylsulfonyl)-1-oxa-8-azaspiro[4.5]decan-3-ylamino)-2-hydroxypropoxy)-N-methylbenzenesulfonamide], 0.0285 µM.
The same measure for `CNS(=O)(=O)c1cccc(OC[C@@H](O)CN[C@H]2COC3(CCN(c4cnc(C(F)(F)F)cn4)CC3)C2)c1` [Compound 585, 3-((S)-2-hydroxy-3-((R)-8-(5-(trifluoromethyl)pyrazin-2-yl)-1-oxa-8-azaspiro[4.5]decan-3-ylamino)propoxy)-N-methylbenzenesulfonamide]: 0.202 µM; for `CNS(=O)(=O)c1cccc(OC[C@@H](O)CNC2COC3(CCN(S(=O)(=O)c4ccccc4)CC3)C2)c1` (stereo partly drawn) [Compound 14, 3-((2S)-2-hydroxy-3-(8-(phenylsulfonyl)-1-oxa-8-azaspiro[4.5]decan-3-ylamino)propoxy)-N-methylbenzenesulfonamide]: 0.0301 µM.
The same measure for `CCn1ccc(=O)c(S(=O)(=O)N2CCC3(CC2)C[C@@H](NC[C@H](O)COc2cccc(S(=O)(=O)NC)c2)CO3)c1` [Compound 588, 3-((S)-3-((R)-8-(1-ethyl-4-oxo-1,4-dihydropyridin-3-ylsulfonyl)-1-oxa-8-azaspiro[4.5]decan-3-ylamino)-2-hydroxypropoxy)-N-methylbenzenesulfonamide]: 1.96 µM; for `CNS(=O)(=O)c1cccc(OC[C@@H](O)CNC2COC3(CCN(S(=O)(=O)c4cc(-c5ccc(CN)cc5)ccc4OC(F)(F)F)CC3)C2)c1` (stereo partly drawn) [Compound 411, 3-((2S)-3-(8-(4′-(aminomethyl)-4-(trifluoromethoxy)biphenyl-3-ylsulfonyl)-1-oxa-8-azaspiro[4.5]decan-3-ylamino)-2-hydroxypropoxy)-N-methylbenzenesulfonamide]: 0.00984 µM; for `CCOCCNS(=O)(=O)c1cccc(OC[C@@H](O)CNC2COC3(CCN(S(=O)(=O)c4ccc5ccccc5c4)CC3)C2)c1` (stereo partly drawn) [Compound 47, N-(2-ethoxyethyl)-3-((2S)-2-hydroxy-3-(8-(naphthalen-2-ylsulfonyl)-1-oxa-8-azaspiro[4.5]decan-3-ylamino)propoxy)benzenesulfonamide]: 0.155 µM.
For the compound `O=S(=O)(NCCF)c1cccc(OC[C@@H](O)CN[C@H]2COC3(CCN(S(=O)(=O)c4ccc5ncccc5c4)CC3)C2)c1` [Compound 393, N-(2-fluoroethyl)-3-((S)-2-hydroxy-3-((R)-8-(quinolin-6-ylsulfonyl)-1-oxa-8-azaspiro[4.5]decan-3-ylamino)propoxy)benzenesulfonamide], the IC50 is 0.141 µM.
Regarding `CCCCCCCc1cnc(N2CCC3(CC2)C[C@@H](NC[C@H](O)COc2cccc(S(=O)(=O)NC)c2)CO3)nc1` [Compound 578, 3-((S)-3-((R)-8-(5-heptylpyrimidin-2-yl)-1-oxa-8-azaspiro[4.5]decan-3-ylamino)-2-hydroxypropoxy)-N-methylbenzenesulfonamide], the IC50 came to 0.424 µM.
As for `CN1CCOc2ncc(S(=O)(=O)N3CCC4(CC3)C[C@@H](NC[C@H](O)COc3cccc(S(=O)(=O)N[C@H]5CCC[C@@H]5O)c3)CO4)cc21` [Compound 427, 3-((S)-2-hydroxy-3-((R)-8-(1-methyl-2,3-dihydro-1H-pyrido[2,3-b][1,4]oxazin-7-ylsulfonyl)-1-oxa-8-azaspiro[4.5]decan-3-ylamino)propoxy)-N-((1S,2S)-2-hydroxycyclopentyl)benzenesulfonamide], the IC50 stood at 0.184 µM.
